SMILES strings stand for the structures. Values joined by “and” are separate entries in the source; they are usually repeats but may differ in a detail not shown here. Equal entries are not always repeated.

The data set deals with HepaRG cells. The data set can be described thus: Time-dependent PA depletion and PANO formation in cell culture medium of HepaRG cells at 37 °C and 4 °C (LC-MS/MS). The note with it: for PA content in cell culture medium, Mean [%]: 700 nM PA, percent of initial PA concentration; for uptake and toxicity (grading): Figure 2a, toxicity grading with ref 41; for PANO formation in cell culture medium: 700 nM parent PA. Here is the method:
In order to measure time-dependent depletion of PA and PANO content in cell culture medium, cells were seeded at a density of 0.2 × 10^6 cells per well in a 6-well plate and cultivated as described in Section 4.2. After four weeks of cultivation, cells were adapted to serum-free medium and medium substituted with insulin, transferrin, selenium (ITS) serum extender (Capricorn Scientific, Ebsdorfergrund, Germany) 48 h prior to PA incubation for optimal LC-MS/MS measurements. […] Samples were taken after 2 h, 4 h, 8 h and 24 h.
Briefly, chromatographic separation of PA/PANO analytes was achieved on a 50 × 2.1 mm Kinetex ™ 2.6 μm CoreShell EVO C18 100 Å column protected by a SecurityGuard ™ ULTRA EVO C 18 2.1 mm guard column (both Phenomenex, Aschaffenburg, Germany) at a flow rate of 0.4 mL/min on a Shimadzu high performance liquid chromatography (HPLC) apparatus (LC-20AB, SIL-20AC HT, CTO-20AC, CBM-20A, Duisburg, Germany) coupled to an API4000 triple quadrupole MS (Sciex, Darmstadt, Germany). The following MS parameters were used for measurements in positive electrospray ionisation (ESI+) mode: ionisation voltage 2500 V, nebuliser gas 50 psi, heating gas 50 psi, curtain gas 30 psi, temperature 600 °C, collision gas level 7. The substance specific parameters are summarized in Kaltner et al. 2019 [79].

Take `C/C=C(/C)C(=O)O[C@H]1CCN2CC=C(COC(=O)[C@@](O)([C@@H](C)O)C(C)(C)O)[C@H]12` [Heliosupine, heliosupine]: the “PA content in cell culture medium, Mean [%]” value (“PA content … [%]” below) reads like this: (HepaRG, 4 °C (cold), 2h) 91.4819%; (HepaRG, 4 °C (cold), 4h) 87.9748%; (HepaRG, 4 °C (cold), 8h) 89.7595%; (HepaRG, 4 °C (cold), 24h) 78.8823%; (HepaRG, 37 °C (warm), 0h) 95.6507%; (HepaRG, 37 °C (warm), 2h) 59.8398%. Besides, the “PA content … [%]” value (HepaRG, 37 °C (warm), 4h) turned out to be 37.2399%; the “PA content … [%]” value (HepaRG, 37 °C (warm), 8h) came to 12.933%; the “PA content … [%]” value (HepaRG, 37 °C (warm), 24h) is 0.2071%. The “reduction of PA content in the supernatant” value (HepaRG, 37 °C, after 24 h, 700 nM) is recorded as “highest decline”. In addition, the “uptake and toxicity (grading)” value (HepaRG) is given as “strong”. Moreover, the “PA in medium, Mean [%]” value was determined as 100% (cold, 0h); 98.142% (cold, 4h); 98.6729% (cold, 8h); 85.6503% (cold, 24h); 100% (warm, 0h); 66.3099% (warm, 2h). In addition, the “PA in medium, Mean [%]” value is listed as 41.9165% (warm, 4h); 15.145% (warm, 8h); 0.2418% (warm, 24h). The “PA in medium, single replicates (repl.)” value was 100% (cold, 0h); 95.0989% and 96.7114% (cold, 2h); 94.7313% and 89.2662% and 110.429% (cold, 4h); 94.1093% (cold, 8h); 84.4985% and 86.6382% (cold, 24h); 100% (warm, 0h). The “PA in medium, single replicates (repl.)” value reads like this: (warm, 2h) 44.4302% and 65.8608% and 88.6387%; (warm, 4h) 27.0977% and 40.0579% and 58.5941%; (warm, 8h) 8.52% and 13.2978% and 23.6169%; (warm, 24h) 0.3741% and 0.0766% and 0.2748%.
Take `C/C=C(/C)C(=O)O[C@@H]1CCN2CC=C(COC(=O)[C@@](O)([C@H](C)O)C(C)(C)O)[C@H]12` [Echimidine, echimidine]: the “PA content … [%]” value (HepaRG, 4 °C (cold), 4h) came to 98.8433%; the “PA content … [%]” value (HepaRG, 4 °C (cold), 24h) was 89.3074%; the “PA content … [%]” value (HepaRG, 37 °C (warm), 2h) is 85.2823%; the “PA content … [%]” value (HepaRG, 37 °C (warm), 4h) is given as 68.4318%; the “PA content … [%]” value (HepaRG, 37 °C (warm), 8h) is 40.2531%; the “PA content … [%]” value (HepaRG, 37 °C (warm), 24h) stood at 3.384%. In addition, the “uptake and toxicity (grading)” value (HepaRG) is “medium”. Besides, the “PA in medium, Mean [%]” value came out at 100% (cold, 0h); 97.014% (cold, 2h); 92.1476% (cold, 4h); 94.8515% (cold, 8h); 82.2598% (cold, 24h); 100% (warm, 0h). The “PA in medium, Mean [%]” value turned out to be 80.9264% (warm, 2h); 64.0995% (warm, 4h); 36.9411% (warm, 8h); 2.921% (warm, 24h). Also, the “PA in medium, single replicates (repl.)” value by setting is: (cold, 0h) 100%; (cold, 2h) 86.5736%; (cold, 4h) 83.0216% and 84.3494%; (cold, 8h) 82.9788% and 110.397%; (cold, 24h) 57.2342% and 76.5517%; (warm, 0h) 100%. Further, the “PA in medium, single replicates (repl.)” value was 77.0539% and 95.3255% (warm, 2h); 50.2783% and 58.3297% and 83.6904% (warm, 4h); 23.0433% and 32.0944% and 55.6854% (warm, 8h); 0.7358% and 1.728% and 6.298% (warm, 24h).
`C/C=C1/C[C@@H](C)[C@](O)(CO)C(=O)OCC2=CC[N@@+]3([O-])CC[C@@H](OC1=O)[C@@H]23` [retrorsine N-oxide]: the “PANO formation in cell culture medium” value (HepaRG, 37 °C, up to 24 h) is given as “increased with time”.
In the case of `C/C=C1/C[C@@H](C)[C@@](C)(O)C(=O)OCC2=CC[N+]3([O-])CC[C@@H](OC1=O)[C@@H]23` (stereo partly shown) [senecionine N-oxide], the “PANO formed in cold-incubated cells, of the applied mother compound” value (HepaRG, 4 °C, 700 nM senecionine, up to 24 h, Figure 2d) is recorded as less than 1%. Further, the “PANO formation in cell culture medium” value (HepaRG, 37 °C, up to 24 h) is on record as “increased with time”.
`C/C=C(/C)C(=O)O[C@@H]1CC[N+]2([O-])CC=C(COC(=O)[C@@](O)([C@H](C)O)C(C)(C)O)[C@H]12` (stereo partly shown) [echimidine N-oxide]: the “PANO formation in cell culture medium” value (HepaRG, 37 °C, up to 24 h) is listed as “increased with time”.

The record behind these values is PMC8067754, “Active Transport of Hepatotoxic Pyrrolizidine Alkaloids in HepaRG Cells” (International Journal of Molecular Sciences, 2021).
